US10022376B2 (Pfizer Inc., priority 2014, dated 2018)

tested on: rhIFNγ stimulated STAT-3 phosphorylation in the A549 human epithelial cell line; assay: A549 Cell Assay: Inhibition of pSTAT3; type: cell-based; settings: Homo sapiens; A549 cells
Experimental: A549 Cell Assay: Inhibition of pSTAT3
An assay measuring the efficacy of JAK inhibitors on the functional response of recombinant human interferon γ (rhIFNγ) stimulated STAT-3 phosphorylation in the A549 human epithelial cell line.
A549 cells (ATCC #CCL-185), were plated at 30,000 cells/well in 96 well flat bottomed tissue culture plates (BD#353072) in 200 μL of growth medium (DMEM, Pfizer media prep, with 10% Fetal Bovine Serum, Sigma #F4135, 2 mM L-Glutamine, Pfizer media prep, 100 U/mL penicillin, Pfizer media prep, and 200 μg/ml streptomycin, Pfizer media prep), and cultured at 37° C., 5% CO2 incubator for 18 hours. Growth medium was removed by vacuum aspiration (V&P Scientific #vp187 bp-60), and 90 μL of pre-warmed assay medium (DMEM with 0.2% BSA, Miltenyi #130-091-376) was added to each well and incubated for 15 minutes at 37° C. 10 μL of vehicle control or test compound (final concentration range of 0.3 nM to 10 μM with 0.1% DMSO) was added to the cells. Plates were incubated at 37° C. for 1 hour. After compound incubation, 10 μL of 220 ng/mL recombinant human IFNγ (R&D Systems #285-IF, final rhIFNγ concentration of 20 ng/mL) was added to the cells and plates were incubated for 30 minutes at 37° C. Wells containing A549 cells, medium with 0.1% DMSO and no rhIFNγ were used as background controls. After rhIFNγ stimulation, media was aspirated from each well and 35 μL/well of iced-cold MSD lysis buffer containing protease and phosphatase inhibitors from Phospho-STAT3 Tyr705 assay kit (Meso-Scale Discovery #K150DID) was added to each well. Plates were incubated at 4° C. with shaking for 30 minutes. Cell lysates were assayed following the MSD Phospho-STAT3 Tyr705 assay kit protocol to detect pSTAT3.
Data were collected and transformed into percent inhibition and calculated using the following formula: […]

| Compound | IC50 [nM] |
| --- | --- |
| CCN(c1ccccc1CNc1nc(-c2cc(F)c(O)cc2CC(F)(F)F)cc2[nH]nc(C(=O)NC)c12)S(=O)(=O)CC [Example 1, 4-({2-[Ethyl(ethylsulfonyl)amino]benzyl}amino)-6-[5-fluoro-4-hydroxy-2-(2,2,2-trifluoroethyl)phenyl]-N-methyl-1H-pyrazolo[4,3-c]pyridine-3-carboxamide] | 67.4 |
| CCc1cc(O)c(F)cc1-c1cc2[nH]nc(C(=O)NC)c2c(NCc2ccccc2N(CC)S(=O)(=O)CC)n1 [Example 2, 4-({2-[ethyl(ethylsulfonyl)amino]benzyl}amino)-6-(2-ethyl-5-fluoro-4-hydroxyphenyl)-N-methyl-1H-pyrazolo[4,3-c]pyridine-3-carboxamide] | 46.8 |
| CCc1cc(O)c(F)cc1-c1cc2[nH]nc(C(=O)NC)c2c(NCc2ccccc2N(C)S(=O)(=O)CC)n1 [Example 3, 6-(2-ethyl-5-fluoro-4-hydroxyphenyl)-4-({2-[(ethylsulfonyl)(methyl)amino]benzyl}amino)-N-methyl-1H-pyrazolo[4,3-c]pyridine-3-carboxamide] | 16.2 |
| CCc1cc(O)c(F)cc1-c1cc2[nH]nc(C(=O)NC)c2c(NCCc2ccc(O)cc2)n1 [Example 4, 6-(2-ethyl-5-fluoro-4-hydroxyphenyl)-4-{[2-(4-hydroxyphenyl)ethyl]amino}-N-methyl-1H-pyrazolo[4,3-c]pyridine-3-carboxamide] | 29.7 |
| CCc1cc(O)c(F)cc1-c1cc2[nH]nc(C(=O)NC)c2c(NCC(C)C)n1 [Example 5, 6-(2-ethyl-5-fluoro-4-hydroxyphenyl)-N-methyl-4-[(2-methylpropyl)amino]-1H-pyrazolo[4,3-c]pyridine-3-carboxamide] | 1.7 |
| CCc1cc(O)c(F)cc1-c1cc2[nH]nc(C(=O)NC)c2c(NCc2cc(Cl)ccc2N(C)S(C)(=O)=O)n1 [Example 6, 4-({5-chloro-2-[methyl(methylsulfonyl)amino]benzyl}amino)-6-(2-ethyl-5-fluoro-4-hydroxyphenyl)-N-methyl-1H-pyrazolo[4,3-c]pyridine-3-carboxamide] | 23.4 |
| CCc1cc(O)c(F)cc1-c1cc2[nH]nc(C(=O)NC)c2c(NCc2cc(F)ccc2N(C)S(C)(=O)=O)n1 [Example 7, 6-(2-ethyl-5-fluoro-4-hydroxyphenyl)-4-({5-fluoro-2-[methyl(methylsulfonyl)amino]benzyl}amino)-N-methyl-1H-pyrazolo[4,3-c]pyridine-3-carboxamide] | 5.7 |
| CCc1cc(O)c(F)cc1-c1cc2[nH]nc(C(=O)NC)c2c(NCc2c(F)cccc2N(C)S(C)(=O)=O)n1 [Example 8, 6-(2-ethyl-5-fluoro-4-hydroxyphenyl)-4-({2-fluoro-6-[methyl(methylsulfonyl)amino]benzyl}amino)-N-methyl-1H-pyrazolo[4,3-c]pyridine-3-carboxamide] | 6.4 |
| CNC(=O)c1n[nH]c2cc(-c3cc(F)c(O)cc3CC(F)(F)F)nc(NCc3cc(C)ccc3N(C)S(C)(=O)=O)c12 [Example 11, 6-[5-fluoro-4-hydroxy-2-(2,2,2-trifluoroethyl)phenyl]-N-methyl-4-({5-methyl-2-[methyl(methylsulfonyl)amino]benzyl}amino)-1H-pyrazolo[4,3-c]pyridine-3-carboxamide] | 72.4 |
| CNC(=O)c1n[nH]c2cc(-c3cc(F)c(O)cc3CC(F)(F)F)nc(NCc3cc(Cl)ccc3N(C)S(C)(=O)=O)c12 [Example 15, 4-({5-chloro-2-[methyl(methylsulfonyl)amino]benzyl}amino)-6-[5-fluoro-4-hydroxy-2-(2,2,2-trifluoroethyl)phenyl]-N-methyl-1H-pyrazolo[4,3-c]pyridine-3-carboxamide] | 92.4 |
| CNC(=O)c1n[nH]c2cc(-c3cc(F)c(O)cc3CC(F)(F)F)nc(NCC(C)C)c12 [Example 16, 6-[5-fluoro-4-hydroxy-2-(2,2,2-trifluoroethyl)phenyl]-N-methyl-4-[(2-methylpropyl)amino]-1H-pyrazolo[4,3-c]pyridine-3-carboxamide] | 65.1 |
| CNC(=O)c1n[nH]c2cc(-c3cc(F)c(O)cc3CC(F)(F)F)nc(NCC3CCCC3)c12 [Example 17, 4-[(cyclopentylmethyl)amino]-6-[5-fluoro-4-hydroxy-2-(2,2,2-trifluoroethyl)phenyl]-N-methyl-1H-pyrazolo[4,3-c]pyridine-3-carboxamide] | 174 |
| CS(=O)(=O)N(CCO)c1ccccc1CNc1nc(-c2cc(F)c(O)cc2CC(F)(F)F)cc2[nH]nc(C(N)=O)c12 [Example 27, 6-[5-fluoro-4-hydroxy-2-(2,2,2-trifluoroethyl)phenyl]-4-({2-[(2-hydroxyethyl)(methylsulfonyl)amino]benzyl}amino)-1H-pyrazolo[4,3-c]pyridine-3-carboxamide] | 874 |
| CCc1cc(O)c(F)cc1-c1cc2[nH]nc(C(=O)NC)c2c(NCc2ccc(O)cc2N(C)S(C)(=O)=O)n1 [Example 29, 6-(2-Ethyl-5-fluoro-4-hydroxyphenyl)-4-({4-hydroxy-2-[methyl (methylsulfonyl)amino]benzyl}amino)-N-methyl-1H-pyrazolo[4,3-c]pyridine-3-carboxamide] | 86.9 |
| CCc1cc(O)c(F)cc1-c1cc2[nH]nc(C(N)=O)c2c(NCc2ccc(O)cc2N(C)S(C)(=O)=O)n1 [Example 30, 6-(2-Ethyl-5-fluoro-4-hydroxyphenyl)-4-({4-hydroxy-2-[methyl(methylsulfonyl)amino]benzyl}amino)-1H-pyrazolo[4,3-c]pyridine-3-carboxamide] | 164 |
| CNC(=O)c1n[nH]c2cc(-c3cc(F)c(O)cc3CC(F)(F)F)nc(NCc3ccccc3N(C)S(=O)(=O)c3cccc(O)c3)c12 [Example 32, 6-[5-Fluoro-4-hydroxy-2-(2,2,2-trifluoroethyl)phenyl]-4-[(2-{[(3-hydroxyphenyl)sulfonyl](methyl)amino}benzyl)amino]-N-methyl-1H-pyrazolo[4,3-c]pyridine-3-carboxamide] | 628 |
| CCN(c1ccc(O)cc1CNc1nc(-c2cc(F)c(O)cc2CC(F)(F)F)cc2[nH]nc(C(=O)NC)c12)S(C)(=O)=O [Example 34, 4-({2-[ethyl(methylsulfonyl)amino]-5-hydroxybenzyl}amino)-6-[5-fluoro-4-hydroxy-2-(2,2,2-trifluoroethyl)phenyl]-N-methyl-1H-pyrazolo[4,3-c]pyridine-3-carboxamide] | 301 |
| CCN(c1ccc(O)cc1CNc1nc(-c2cc(F)c(O)cc2CC(F)(F)F)cc2[nH]nc(C(=O)NC)c12)S(=O)(=O)c1ccccc1 [Example 36, 4-({2-[ethyl(phenylsulfonyl)amino]-5-hydroxybenzyl}amino)-6-[5-fluoro-4-hydroxy-2-(2,2,2-trifluoroethyl)phenyl]-N-methyl-1H-pyrazolo[4,3-c]pyridine-3-carboxamide] | 433 |
| CNC(=O)c1n[nH]c2cc(-c3cc(F)c(O)cc3C3CC3)nc(NCc3ccccc3N(C)S(C)(=O)=O)c12 [Example 37, 6-(2-cyclopropyl-5-fluoro-4-hydroxyphenyl)-N-methyl-4-({2-[methyl(methylsulfonyl)amino]benzyl}amino)-1H-pyrazolo[4,3-c]pyridine-3-carboxamide] | 47.4 |
| CCc1cc(O)c(F)cc1-c1cc2[nH]nc(C(=O)NC)c2c(N[C@H](C)c2ccccc2N(C)S(C)(=O)=O)n1 [Example 38, 6-(2-Ethyl-5-fluoro-4-hydroxyphenyl)-N-methyl-4-{[(1R)-1-{2-[methyl(methylsulfonyl)amino]phenyl}ethyl]amino}-1H-pyrazolo[4,3-c]pyridine-3-carboxamide] | 30.8 |
| CCc1cc(O)c(F)cc1-c1cc2[nH]nc(C(=O)NC)c2c(N[C@@H](C)c2ccccc2N(C)S(C)(=O)=O)n1 [Example 39, 6-(2-Ethyl-5-fluoro-4-hydroxyphenyl)-N-methyl-4-{[(1S)-1-{2-[methyl(methylsulfonyl)amino]phenyl}ethyl]amino}-1H-pyrazolo[4,3-c]pyridine-3-carboxamide] | 60.9 |
| CCc1cc(O)c(F)cc1-c1cc2[nH]nc(C(N)=O)c2c(NCc2ccccc2N(C)S(=O)(=O)c2ccccc2)n1 [Example 40, 6-(2-Ethyl-5-fluoro-4-hydroxyphenyl)-4-({2-[methyl(phenylsulfonyl)amino]benzyl}amino)-1H-pyrazolo[4,3-c]pyridine-3-carboxamide] | 50 |
| CN(c1ccc(O)cc1CNc1nc(-c2cc(F)c(O)cc2CC(F)(F)F)cc2[nH]nc(C(N)=O)c12)S(=O)(=O)c1ccccc1 [Example 42, 6-[5-fluoro-4-hydroxy-2-(2,2,2-trifluoroethyl)phenyl]-4-({5-hydroxy-2-[methyl(phenylsulfonyl)amino]benzyl}amino)-1H-pyrazolo[4,3-c]pyridine-3-carboxamide] | 645 |
| CCN(c1ccc(O)cc1CNc1nc(-c2cc(F)c(O)cc2CC(F)(F)F)cc2[nH]nc(C(N)=O)c12)S(=O)(=O)c1ccccc1 [Example 43, 4-({2-[ethyl(phenylsulfonyl)amino]-5-hydroxybenzyl}amino)-6-[5-fluoro-4-hydroxy-2-(2,2,2-trifluoroethyl)phenyl]-1H-pyrazolo[4,3-c]pyridine-3-carboxamide] | 764 |
